This is an account of results in patent US10092002B2, “Herbicidal composition comprising nicosulfuron or its salt and S -metolachlor or its salt” (ISHIHARA SANGYO KAISHA, LTD., priority 2011, dated 2018).

As usually defined, the inhibition is the relative decrease from the control value, in per cent.

Holding throughout (format): in vivo
For experiment [1], the system named is sunn-hemp (Crotalaria juncea L.). As to the kind of experiment: Test Example 4: soil treatment, sunn-hemp, visual growth inhibition rate. As to conditions: Crotalaria juncea, soil, read-out: Growth inhibition rate (%) of sunn-hemp, Measured value. The text has this:
In a case where three active ingredients are combined, the activity can be similarly calculated as follows. E2=(α+β+γ)−(αβ+αγ+βγ)/100+(αβγ)/10000 where α: growth inhibition rate when treated with x (g/ha) of herbicide X,
Growth inhibition rate (%)=0 (equivalent to the non-treated area) to 100 (complete kill)
Upland field soil was put into a 1/300,000 ha pot, and seeds of sunn-hemp (Crotalaria juncea L.) were sown.

Experiment [2] has as its system common cocklebur (Xanthium strumarium L.). Put plainly: Test Example 1: foliar treatment of common cocklebur in pots, visual growth inhibition rate. To be noted: Xanthium strumarium, foliar treatment at 4.3 to 4.8-leaf stage, 22nd day after treatment, read-out: Growth inhibition rate (%) of common cocklebur, Measured value. The text has this:
When the herbicidal activity in a case where two active ingredients are combined, is larger than the simple sum of the respective herbicidal activities of the two active ingredients (the expected activity), it is called a synergistic effect. The activity expected by the combination of two active ingredients can be calculated as follows (Colby S. R., “Weed”, vol. 15, p. 20-22, 1967). E1=α+β-(α×β÷100) In a case where three active ingredients are combined, the activity can be similarly calculated as follows. […] Upland field soil was put into a 1/1,000,000 ha pot, and seeds of common cocklebur (Xanthium strumarium L.) were sown. […] Dual Gold, manufactured by Syngenta Crop Protection AG), SC agent containing terbuthylazine as an active ingredient (tradename: Click, manufactured by BASF), SC agent containing mesotrione as an active ingredient (tradename: Callisto, manufactured by Syngenta Crop Protection AG) and WG agent containing prosulfuron as an active ingredient (tradename: Peak, manufactured by Syngenta Crop Protection AG) were diluted with water in an amount corresponding to 1,000 Uha, and applied for foliar treatment by a small sprayer. On the 22nd day after treatment, the state of growth of the common cocklebur was visually observed to determine the growth inhibition rate in accordance with the following evaluation standard. The growth inhibition rate (%) (measured value) and the growth inhibition rate (%) (calculated value) calculated by the Colby's formula are shown in Table 1.

Experiment [3] deals with wild oat (Avena fatua L.). As to the kind of experiment: Test Example 3: soil treatment, wild oat, visual growth inhibition rate. To be noted: Avena fatua, soil treatment the day after sowing, 14th day after treatment, read-out: Growth inhibition rate (%) of wild oat, Measured value. The text has this:
When the herbicidal activity in a case where two active ingredients are combined, is larger than the simple sum of the respective herbicidal activities of the two active ingredients (the expected activity), it is called a synergistic effect. The activity expected by the combination of two active ingredients can be calculated as follows (Colby S. R., “Weed”, vol. 15, p. 20-22, 1967). […] In a case where three active ingredients are combined, the activity can be similarly calculated as follows. […] On the 22nd day after treatment, the state of growth of the common cocklebur was visually observed to determine the growth inhibition rate in accordance with the following evaluation standard. The growth inhibition rate (%) (measured value) and the growth inhibition rate (%) (calculated value) calculated by the Colby's formula are shown in Table 1. […] On the 14th day after treatment, the state of growth of the wild oat was visually observed to determine the growth inhibition rate.

For the compound `COCCOCc1nc(C(F)(F)F)ccc1C(=O)C1=C(O)C2CCC(C2)C1=O` (centres unmarked) [Bicyclopyrone, 4-hydroxy-3-{2-[(2-methoxyethoxy)methyl]-6-(trifluoromethyl)-3-pyridylcarbonyl}bicyclo[3.2.1]oct-3-en-2-one], in experiment [1], the inhibition at 25 g/ha was found to be 0% and the inhibition at 150 g/ha is 20%.

For `CS(=O)(=O)c1ccc(C(=O)C2C(=O)CCCC2=O)c([N+](=O)[O-])c1` [Mesotrione, 2-(4-mesyl-2-nitrobenzoyl)cyclohexane-1,3-dione], the inhibition at 50 g/ha in experiment [2] (dose 50 g/ha) was 0%. The inhibition at 25 g/ha in experiment [3] (dose 25 g/ha) worked out at 0%. In experiment [3] (dose 150 g/ha), the inhibition at 150 g/ha was determined as 5%.

As for `COc1nc(C)nc(NC(=O)NS(=O)(=O)c2ccccc2CCC(F)(F)F)n1` [Prosulfuron, 1-(4-methoxy-6-methyl-1,3,5-triazin-2-yl)-3-[2-(3,3,3-trifluoropropyl)phenylsulfonyl]urea], in experiment [2] (dose 15 g/ha), the inhibition at 15 g/ha was 88%. In addition, in experiment [3] (dose 2.5 g/ha), the inhibition at 2.5 g/ha is 25%. Further, the inhibition at 50 g/ha in experiment [3] (dose 50 g/ha) amounted to 0%.

With `CCNc1nc(Cl)nc(NC(C)(C)C)n1` [Terbuthylazine, N^2-tert-butyl-6-chloro-N^4-ethyl-1,3,5-triazine-2,4-diamine], the inhibition at 500 g/ha in experiment [2] (dose 500 g/ha) stood at 10%. In experiment [3] (dose 250 g/ha), the inhibition at 250 g/ha worked out at 25%. Besides, the inhibition at 1500 g/ha in experiment [3] (dose 1500 g/ha) came out at 5%.
